Assays:
Conditions in all cases: treatment: drug + dasatinib (fixed dose, not stated); 5 days
[1] = system: 769-P; assay: AUC of dose-response viability curve, drug + dasatinib, normalised to DMSO (arbitrary (AUC of normalised viability)); higher = less growth inhibition
Procedure: (§1)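 Primary HTS combination arm: 8 RCC cell lines treated with 8 doses (up to 10 uM) of each library drug plus a fixed dose of dasatinib (dose not stated) for 5 days; viability read by CellTiter-Glo and normalised to DMSO. GI50 was fitted with XLfit, AUC is the area under the dose-response curve, and minimum viability is the lowest fraction of DMSO viability across doses.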

[2] = system: CAKI-1; assay: as above
Procedure: as §1

[3] = system: 786-O; assay: as above
Procedure: as §1

[4] = system: SN12C; assay: as above
Procedure: as §1

[5] = system: TK-10; assay: as above
Procedure: as §1

[6] = system: A498; assay: as above
Procedure: as §1

[7] = system: ACHN; assay: as above
Procedure: as §1

[8] = system: UO-31; assay: as above
Procedure: as §1

[9] = system: 769-P; assay: minimum viability across doses, drug + dasatinib, relative to DMSO (fraction); higher = less growth inhibition
Procedure: as §1

[10] = system: CAKI-1; assay: as above
Procedure: as §1

[11] = system: 786-O; assay: as above
Procedure: as §1

[12] = system: SN12C; assay: as above
Procedure: as §1

[13] = system: TK-10; assay: as above
Procedure: as §1

[14] = system: A498; assay: as above
Procedure: as §1

[15] = system: ACHN; assay: as above
Procedure: as §1

[16] = system: UO-31; assay: as above
Procedure: as §1

[17] = system: 769-P; assay: GI50 of drug in presence of dasatinib; higher = less potent
Procedure: as §1

[18] = system: CAKI-1; assay: as above
Procedure: as §1

[19] = system: 786-O; assay: as above
Procedure: as §1

[20] = system: SN12C; assay: as above
Procedure: as §1

[21] = system: TK-10; assay: as above
Procedure: as §1

[22] = system: A498; assay: as above
Procedure: as §1

[23] = system: ACHN; assay: as above
Procedure: as §1

[24] = system: UO-31; assay: as above
Procedure: as §1

Structure (SMILES)	AUC of dose-response viability curve [1]	AUC of dose-response viability curve [2]	AUC of dose-response viability curve [3]	AUC of dose-response viability curve [4]	AUC of dose-response viability curve [5]	AUC of dose-response viability curve [6]	AUC of dose-response viability curve [7]	AUC of dose-response viability curve [8]	minimum viability across doses [9]	minimum viability across doses [10]	minimum viability across doses [11]	minimum viability across doses [12]	minimum viability across doses [13]	minimum viability across doses [14]	minimum viability across doses [15]	minimum viability across doses [16]	GI50 of drug [17]	GI50 of drug [18]	GI50 of drug [19]	GI50 of drug [20]	GI50 of drug [21]	GI50 of drug [22]	GI50 of drug [23]	GI50 of drug [24]
CC(C)c1cnn2c(NCc3ccccc3)cc(NCCCCCCN)nc12.Cl [BS-181 HCl] + Cc1nc(Nc2ncc(C(=O)Nc3c(C)cccc3Cl)s2)cc(N2CCN(CCO)CC2)n1 [dasatinib]	2.55	2.34	2.72	2.46	2.63	3.45	1.94	4.39	0.672	0.6	0.438	0.67	0.657	0.942	0.344	1.11	> 10 µM	> 10 µM	7.19 µM	> 10 µM	> 10 µM	> 10 µM	2.87 µM	> 10 µM
O=C(NCCCNc1nc(Nc2cccc(NC(=O)N3CCCC3)c2)ncc1I)c1cccs1 [BX-795] + Cc1nc(Nc2ncc(C(=O)Nc3c(C)cccc3Cl)s2)cc(N2CCN(CCO)CC2)n1 [dasatinib]	2.08	1.77	1.72	2.44	2.09	3.06	1.74	3.15	0.0706	0.0814	0.00318	0.334	0.0986	0.74	0.155	0.015	1.59 µM	0.457 µM	0.695 µM	4.41 µM	1.78 µM	> 10 µM	0.411 µM	3.02 µM
O=C(Nc1cccc(Nc2ncc(Br)c(NCCc3cnc[nH]3)n2)c1)N1CCCC1 [BX-912] + Cc1nc(Nc2ncc(C(=O)Nc3c(C)cccc3Cl)s2)cc(N2CCN(CCO)CC2)n1 [dasatinib]	2.3	1.8	1.78	2.23	2.25	2.97	1.9	3.19	0.335	0.0425	0.0673	0.0907	0.144	0.365	0.168	0.288	4.6 µM	0.502 µM	0.937 µM	1.18 µM	2.59 µM	5.82 µM	1.28 µM	9.13 µM
Cc1nc(NC(=O)N2CCC[C@H]2C(N)=O)sc1-c1ccnc(C(C)(C)C(F)(F)F)c1 [BYL719] + Cc1nc(Nc2ncc(C(=O)Nc3c(C)cccc3Cl)s2)cc(N2CCN(CCO)CC2)n1 [dasatinib]	2.29	2.14	1.56	2.23	2.15	3.24	1.45	3.72	0.393	0.162	0.114	0.407	0.305	0.54	0.242	0.0931	3.68 µM	1.72 µM	0.0698 µM	> 10 µM	2.79 µM	> 10 µM	0.0116 µM	5.56 µM
O=c1[nH]c2ccc(Cl)cc2c(N[C@@H]2CN3CCC2CC3)c1-c1nc2ccccc2[nH]1 [CHIR-124] + Cc1nc(Nc2ncc(C(=O)Nc3c(C)cccc3Cl)s2)cc(N2CCN(CCO)CC2)n1 [dasatinib]	1.31	1.3	0.817	1.76	1.37	2.13	0.737	1.52	0.0198	0.0428	0.00497	0.00873	0.151	0.0177	0.018	0.00945	0.101 µM	0.0871 µM	0.0374 µM	1 µM	0.0706 µM	0.293 µM	0.0112 µM	0.0739 µM
C=CC(=O)Nc1cc2c(Nc3ccc(F)c(Cl)c3)ncnc2cc1OCCCN1CCOCC1 [CI-1033 (Canertinib)] + Cc1nc(Nc2ncc(C(=O)Nc3c(C)cccc3Cl)s2)cc(N2CCN(CCO)CC2)n1 [dasatinib]	1.46	1.84	2.11	2.13	1.79	2.74	1.31	2.4	0.185	0.0894	0.372	0.295	0.133	0.0275	0.11	0.00946	0.0464 µM	0.739 µM	1.34 µM	0.969 µM	0.283 µM	4.07 µM	0.0141 µM	1.33 µM
Cc1nc(N)sc1-c1ccnc(Nc2ccc(N3CCOCC3)cc2)n1 [CYC116] + Cc1nc(Nc2ncc(C(=O)Nc3c(C)cccc3Cl)s2)cc(N2CCN(CCO)CC2)n1 [dasatinib]	1.92	1.45	1.74	2	1.96	3.01	1.35	2.86	0.074	0.00751	0.0032	0.0981	0.0917	0.381	0.0722	0.0118	1.02 µM	0.332 µM	0.482 µM	0.831 µM	0.64 µM	6.52 µM	0.137 µM	2.02 µM
COc1cc2c(Oc3ccc4[nH]c(C)cc4c3F)ncnc2cc1OCCCN1CCCC1 [Cediranib (AZD2171)] + Cc1nc(Nc2ncc(C(=O)Nc3c(C)cccc3Cl)s2)cc(N2CCN(CCO)CC2)n1 [dasatinib]	2.35	1.59	2.21	1.85	2.35	2.63	1.61	2.17	0.145	0.019	0.13	0.0758	0.0412	0.154	0.0558	0.014	3.97 µM	0.287 µM	1.35 µM	0.355 µM	2.24 µM	2.39 µM	0.21 µM	0.617 µM
N#CCNC(=O)c1ccc(-c2ccnc(Nc3ccc(N4CCOCC4)cc3)n2)cc1 [Cyt387] + Cc1nc(Nc2ncc(C(=O)Nc3c(C)cccc3Cl)s2)cc(N2CCN(CCO)CC2)n1 [dasatinib]	2.24	1.83	1.73	2.27	2.14	3.6	1.72	2.78	0.125	0.0305	0.0246	0.271	0.0961	0.897	0.0607	0.00938	2.11 µM	0.325 µM	0.884 µM	2.91 µM	1.63 µM	> 10 µM	0.796 µM	2.55 µM
CNC(=O)c1cc(Oc2ccc(NC(=O)Nc3cc(C(C)(C)C)nn3-c3ccc4ncccc4c3)c(F)c2)ccn1 [DCC-2036 (Rebastinib)] + Cc1nc(Nc2ncc(C(=O)Nc3c(C)cccc3Cl)s2)cc(N2CCN(CCO)CC2)n1 [dasatinib]	2.21	1.54	1.88	1.87	2.29	3.51	1.71	2.84	0.185	0.053	0.208	0.0277	0.0566	0.0121	0.0458	0.00958	1.54 µM	0.125 µM	0.293 µM	0.319 µM	1.33 µM	4.42 µM	0.499 µM	1.1 µM
CN1CCN(c2ccc3nc(-c4c(N)c5c(F)cccc5[nH]c4=O)[nH]c3c2)CC1 [Dovitinib (TKI-258)] + Cc1nc(Nc2ncc(C(=O)Nc3c(C)cccc3Cl)s2)cc(N2CCN(CCO)CC2)n1 [dasatinib]	2.06	1.5	2.58	1.6	2.33	2.49	1.38	2.36	0.0592	0.0724	0.263	0.0733	0.277	0.239	0.14	0.0928	1.41 µM	0.148 µM	4.07 µM	0.266 µM	1.89 µM	2.33 µM	0.0448 µM	0.697 µM
CC(O)C(=O)O.CC(O)C(=O)O.CN1CCN(c2ccc3nc(-c4c(N)c5c(F)cccc5[nH]c4=O)[nH]c3c2)CC1 [Dovitinib Dilactic acid (TKI258 Dilactic acid)] + Cc1nc(Nc2ncc(C(=O)Nc3c(C)cccc3Cl)s2)cc(N2CCN(CCO)CC2)n1 [dasatinib]	2.2	1.45	2.64	1.8	2.12	3.14	0.989	3.44	0.0213	0.0435	0.139	0.0502	0.289	0.303	0.0981	0.124	1.75 µM	0.0982 µM	3.48 µM	0.352 µM	1.07 µM	4.27 µM	0.0117 µM	1.32 µM
COc1cc2nccc(Oc3ccc(NC(=O)NC4CC4)c(Cl)c3)c2cc1C(N)=O [E7080 (Lenvatinib)] + Cc1nc(Nc2ncc(C(=O)Nc3c(C)cccc3Cl)s2)cc(N2CCN(CCO)CC2)n1 [dasatinib]	2.26	1.81	2.62	2.22	2.65	3.47	1.96	1.8	0.321	0.0901	0.674	0.312	0.682	0.795	0.247	0.338	4.52 µM	0.431 µM	> 10 µM	> 10 µM	> 10 µM	> 10 µM	1.26 µM	7.26 µM

— the supplement of paper PMC8149375
